Results on one compound are retold here after US20190308988A1, “OPIOID RECEPTOR ANTAGONIST PRODRUGS” (Nirsum Laboratories, Inc., priority 2017, published 2019).

The nature of the data set: Plasma stability, human plasma (HPLC-MS). The settings on record: 2 μM, 37° C., 15 min. In kind it is in vitro ADME. As for the experimental part:
Plasma Stability Determination of the Test Compounds in Rat, Dog, Cynomolgus Monkey and human plasma is performed using HPLC-MS. For rat, incubations are carried out in 96-well polypropylene plates in 5 aliquots of 70 μL each (one for each time point). […] Five time points are analyzed (0, 15, 120, 480 and 1440 min). […] All incubations are performed in duplicates. The samples are analyzed by HPLC-MS. The percentage of parent compound remaining after incubation in plasma is determined.

Structures are written as SMILES.

Regarding `C=C1CC[C@@]2(O)C3Cc4ccc(OCOC(=O)OCCCCCCCCCCCC)c5c4[C@@]2(CCN3CC2CC2)[C@H]1O5` [Compound 24, (((4aS,7aS,12bS)-3-(cyclopropylmethyl)-4a-hydroxy-7-methylene-2,3,4,4a,5,6,7,7a-octahydro-1H-4,12-methanobenzofuro[3,2-e]isoquinolin-9-yl)oxy)methyl dodecyl carbonate], the “% remaining at time point in minutes, 15 min” value was found to be 94%.
